According to PMC5823845 (Bioorganic & Medicinal Chemistry, 2018):

How the values were obtained:
[1] = in the absence of S9; cited from earlier work
[2] = Intrinsic clearance in liver microsomes; type: in vitro ADME; conditions: liver microsomes, 37 °C, NADPH, 45 min, mean of 5
Description: The reaction is terminated by the addition of methanol. Following centrifugation, the supernatant is analyzed on the LC-MS/MS. […] The data is the mean on 5 separate experiments.
The ln peak area ratio (compound peak area/internal standard peak area) is plotted against time and the gradient of the line determined.
(see Supplementary data file for details).

[3] = Log D pH 7.4, octanol/buffer shake flask method
Description: Briefly, octanol (pre-saturated with buffer) is added to the test compound and sonicated. Buffer at pH 7.4 (presaturated with octanol) is then added to the octanol. […] The system is mixed to allow distribution of the compound between the two phases.
Log D = Log (Coct / Caq ). Where: Coct = Concentration in octanol sample (corrected for dilution) and Caq = Concentration in aqueous sample (corrected for dilution)

[4] = tested on: HEPG2 cells; assay: High-content cell toxicity screen in HEPG2 cells; type: cell-based; conditions: concentrations between 10 and 30 μM
Description: Effect on the cell or mitochondrial viability markers in HepG2 cells were tested for compounds up to 50 μM. HepG2 cells were plated on 96-well tissue culture treated black walled clear bottomed polystyrene plates at 0:3 _ 104 cells in 100_L per well. After 24 hr the cells were dosed with the test compound at a range of concentrations (see Assay Summary for details). At the end of the incubation period, the cells were loaded with the relevant dye/antibody for each cell health marker. The plates were then scanned using an automated fluorescent cellular imager, ArrayScanr VTI (Thermo Scientific Cellomics).

[5] = target: T1, Cyp 450 2C19 (Homo sapiens, UniProt P33261); assay: Cytochrome P450 inhibition in human liver microsomes; type: in vitro ADME; conditions: at 25 μM
T1 construct: tissue Cyprotex (CRO); host or cells: human liver microsomes
T1 sequence (P33261 whole entry): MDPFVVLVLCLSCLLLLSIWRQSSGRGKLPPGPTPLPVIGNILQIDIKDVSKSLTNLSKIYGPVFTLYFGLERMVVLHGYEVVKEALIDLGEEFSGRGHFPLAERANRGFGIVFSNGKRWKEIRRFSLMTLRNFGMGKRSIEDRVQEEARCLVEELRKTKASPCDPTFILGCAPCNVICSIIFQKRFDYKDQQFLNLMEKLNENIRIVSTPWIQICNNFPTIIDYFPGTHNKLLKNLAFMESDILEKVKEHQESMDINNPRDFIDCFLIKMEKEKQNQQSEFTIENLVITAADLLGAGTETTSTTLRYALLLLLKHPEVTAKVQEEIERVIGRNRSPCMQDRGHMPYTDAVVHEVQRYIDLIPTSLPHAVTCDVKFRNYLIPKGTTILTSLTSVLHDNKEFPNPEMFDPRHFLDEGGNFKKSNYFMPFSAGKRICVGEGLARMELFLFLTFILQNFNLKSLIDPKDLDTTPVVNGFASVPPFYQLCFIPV
Description: (§1) The five main cytochrome P450 isoforms (CYP1A, CYP2C9, CYP2C19, CYP2D6 and CYP3A4) were investigated in the P450 inhibition assay. […] At the end of the incubation, the formation of the metabolite was monitored by LC-MS/MS (or fluorescence in the case of CYP1A) at each of the test compound concentrations.

[6] = target: T2, Cyp 450 2D6 (Homo sapiens, UniProt P10635); assay: as above; type: in vitro ADME; conditions: at 25 μM
T2 construct: tissue Cyprotex (CRO); host or cells: human liver microsomes
T2 sequence (P10635 whole entry): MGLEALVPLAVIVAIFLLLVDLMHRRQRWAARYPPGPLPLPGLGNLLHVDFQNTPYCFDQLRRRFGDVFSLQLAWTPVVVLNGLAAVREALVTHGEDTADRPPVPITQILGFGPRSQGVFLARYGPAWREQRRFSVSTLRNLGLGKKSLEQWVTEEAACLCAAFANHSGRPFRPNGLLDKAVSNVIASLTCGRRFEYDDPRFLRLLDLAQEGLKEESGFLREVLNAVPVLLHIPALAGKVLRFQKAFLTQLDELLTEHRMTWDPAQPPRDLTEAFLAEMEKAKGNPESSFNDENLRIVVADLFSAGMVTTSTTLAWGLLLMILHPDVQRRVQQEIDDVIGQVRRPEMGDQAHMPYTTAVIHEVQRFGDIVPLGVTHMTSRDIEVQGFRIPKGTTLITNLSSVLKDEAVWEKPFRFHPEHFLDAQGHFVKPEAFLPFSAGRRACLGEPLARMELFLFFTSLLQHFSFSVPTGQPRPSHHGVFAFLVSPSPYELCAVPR
Description: as §1

[7] = target: T3, Cyp 450 1A2 (Homo sapiens, UniProt P05177); assay: as above; type: in vitro ADME; conditions: at 25 μM
T3 construct: tissue Cyprotex (CRO); host or cells: human liver microsomes
T3 sequence (P05177 1-516): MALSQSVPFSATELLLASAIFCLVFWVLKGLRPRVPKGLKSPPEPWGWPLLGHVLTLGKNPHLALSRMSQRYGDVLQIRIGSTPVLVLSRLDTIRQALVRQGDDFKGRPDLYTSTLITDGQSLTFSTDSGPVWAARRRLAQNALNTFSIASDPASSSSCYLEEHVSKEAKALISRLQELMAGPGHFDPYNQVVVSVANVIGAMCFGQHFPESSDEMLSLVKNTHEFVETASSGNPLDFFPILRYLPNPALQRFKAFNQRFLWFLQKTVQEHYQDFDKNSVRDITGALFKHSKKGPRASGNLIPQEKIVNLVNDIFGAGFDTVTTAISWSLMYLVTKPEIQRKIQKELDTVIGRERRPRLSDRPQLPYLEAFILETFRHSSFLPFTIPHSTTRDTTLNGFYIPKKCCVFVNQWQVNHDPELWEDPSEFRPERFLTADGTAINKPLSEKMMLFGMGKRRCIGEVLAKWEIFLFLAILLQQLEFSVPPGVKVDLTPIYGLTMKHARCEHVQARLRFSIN
Description: as §1

[8] = target: T4, Cyp 450 3A4 (Homo sapiens, UniProt P08684); assay: as above; type: in vitro ADME; conditions: at 25 μM
T4 construct: tissue Cyprotex (CRO); host or cells: human liver microsomes
T4 sequence (P08684 whole entry): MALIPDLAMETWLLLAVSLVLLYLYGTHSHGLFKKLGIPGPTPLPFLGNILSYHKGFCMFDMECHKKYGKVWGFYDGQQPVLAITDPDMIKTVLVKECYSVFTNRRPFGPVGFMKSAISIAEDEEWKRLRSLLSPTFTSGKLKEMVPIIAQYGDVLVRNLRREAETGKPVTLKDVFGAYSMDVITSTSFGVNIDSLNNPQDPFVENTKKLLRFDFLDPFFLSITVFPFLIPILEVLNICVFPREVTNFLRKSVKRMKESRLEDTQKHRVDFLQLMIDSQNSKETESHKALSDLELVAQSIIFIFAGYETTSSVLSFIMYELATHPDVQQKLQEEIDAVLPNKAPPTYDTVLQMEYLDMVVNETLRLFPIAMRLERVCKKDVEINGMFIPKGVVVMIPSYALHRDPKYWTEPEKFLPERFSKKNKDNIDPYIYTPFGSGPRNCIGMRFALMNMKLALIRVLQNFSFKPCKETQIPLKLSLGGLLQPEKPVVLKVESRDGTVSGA
Description: as §1

[9] = target: T5, Cyp 450 2C9 (Homo sapiens, UniProt P11712); assay: as above; type: in vitro ADME; conditions: at 25 μM
T5 construct: tissue Cyprotex (CRO); host or cells: human liver microsomes
T5 sequence (P11712 whole entry): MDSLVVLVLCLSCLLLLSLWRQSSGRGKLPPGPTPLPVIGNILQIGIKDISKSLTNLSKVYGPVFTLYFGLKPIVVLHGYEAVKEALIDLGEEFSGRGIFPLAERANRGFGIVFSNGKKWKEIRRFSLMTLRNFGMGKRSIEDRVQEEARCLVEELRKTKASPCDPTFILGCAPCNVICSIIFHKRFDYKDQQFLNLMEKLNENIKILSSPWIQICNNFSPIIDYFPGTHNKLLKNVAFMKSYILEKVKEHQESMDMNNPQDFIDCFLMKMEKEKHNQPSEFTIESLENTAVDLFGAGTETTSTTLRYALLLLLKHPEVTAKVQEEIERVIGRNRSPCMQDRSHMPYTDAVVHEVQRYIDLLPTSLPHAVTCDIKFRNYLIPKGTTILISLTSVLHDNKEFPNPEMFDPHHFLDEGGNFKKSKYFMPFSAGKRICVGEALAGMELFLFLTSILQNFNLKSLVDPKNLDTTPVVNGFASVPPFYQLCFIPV
Description: as §1

[10] = PK studies in rats; type: in vivo, Sprague-Dawley rats; conditions: for rat pK AUC po: 10 mg/kg po, 8% Ethanol/92% PEG-400, n = 4; for rat pK Cl: iv 0.5 mg/kg; for rat pK Cl / bioavailability: n = 4; for bioavailability: male, Sprague-Dawley, whole blood, rat, 10 mg/kg po vs 0.5 mg/kg iv, read-out: rat pK F%
Description: The Test Items were orally administered at a dose of 10 mg/kg and a dosing volume of 10 mL/kg. […] The Test Items were intravenously administered at a dose of 0.5 mg/kg and a dosing volume of 2 mL/kg. […] Whole blood concentrations of the Test Items were measured using LC-MS/MS and selected pharmacokinetic parameters calculated using Pharsight WinNonLin software. For furthers details see Supplementary data file.

[11] = target: T6, mouse RAR alpha receptor (Mus musculus, UniProt P11416); conditions: relative to the amplitude of the normalizing ATRA output
T6 sequence (P11416 183-417 limits assumed): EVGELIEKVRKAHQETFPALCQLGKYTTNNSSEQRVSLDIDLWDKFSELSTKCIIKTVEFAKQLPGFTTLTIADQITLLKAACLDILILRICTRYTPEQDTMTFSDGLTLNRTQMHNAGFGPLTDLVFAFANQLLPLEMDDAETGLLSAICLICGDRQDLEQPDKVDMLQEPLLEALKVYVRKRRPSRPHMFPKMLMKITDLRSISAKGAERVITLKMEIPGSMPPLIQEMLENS

| SMILES | mutagenicity in vitro [1] | microsomal CLint ([2]; human microsomes) [µL/min/mg] | logD [3] | cell membrane permeability [4] | mitochondrial membrane potential [4] | Cyp 2C19 liability [5] | Cyp 2D6 liability [6] | Cyp1A liability [7] | Cyp 3A4 liability [8] | Cyp 2C9 liability [9] | microsomal CLint ([2]; mouse microsomes) [µL/min/mg] | rat pK AUC po [10] | rat pK Cl [10] [mL/kg/min] | bioavailability [10] [%] | RARα agonist type (partial / full agonist) [11] |
| --- | --- | --- | --- | --- | --- | --- | --- | --- | --- | --- | --- | --- | --- | --- | --- |
| CC1(C)CCC(C)(C)c2cc(C(=O)Nc3ccc(C(=O)O)cc3)ccc21 [Compound 2] | mutagen | 15.6 | 2.8 | significant increase | significant decrease | – | – | – | – | – | – | – | – | – | – |
| CCOc1c(Cl)cc(C(=O)Nc2ccc(C(=O)O)cc2)cc1Cl [Compound 5, 4-(3,5-dichloro-4-ethoxybenzamido)benzoic acid] | – | 18 | 1.7 | – | – | inactive | inactive | inactive | inactive | inactive | 127 | – | – | – | – |
| CC(C)Oc1cc(C(=O)Nc2ccc(C(=O)O)cc2)cc(Cl)c1OC(C)C [Compound 39, 4-(3-chloro-4,5-diisopropoxybenzamido)benzoic acid] | – | – | 2.6 | – | – | – | – | – | – | – | 31 | 43,569 ng·min mL^−1 | 10 | 39 | full agonist |
| COc1c(Cl)cc(C(=O)Nc2ccc(C(=O)O)cc2)cc1OC(C)C [Compound 51] | – | 12 | 1 | – | – | – | – | – | – | – | 9 | 50,940 ng·min mL^−1 | 3 | 13 | full agonist |
